Results taken from ChEMBL document CHEMBL6121060, “Discovery and Development of CFTR Modulators for the Treatment of Cystic Fibrosis” (J Med Chem, 2025).
Values after ≈ are worked out from the molar mass of the structure shown.

How the values were obtained:
[1] = molecular target: T1, Cystic fibrosis transmembrane conductance regulator (Homo sapiens, UniProt P13569, F508DEL); assay: Activation of CFTR F508del mutant (unknown origin)
[2] = molecular target: T2, Nuclear receptor subfamily 1 group I member 2 (Homo sapiens, UniProt O75469); assay: Activation of PXR (unknown origin) at 10 uM relative to rifampicin
T2 sequence (O75469 whole entry): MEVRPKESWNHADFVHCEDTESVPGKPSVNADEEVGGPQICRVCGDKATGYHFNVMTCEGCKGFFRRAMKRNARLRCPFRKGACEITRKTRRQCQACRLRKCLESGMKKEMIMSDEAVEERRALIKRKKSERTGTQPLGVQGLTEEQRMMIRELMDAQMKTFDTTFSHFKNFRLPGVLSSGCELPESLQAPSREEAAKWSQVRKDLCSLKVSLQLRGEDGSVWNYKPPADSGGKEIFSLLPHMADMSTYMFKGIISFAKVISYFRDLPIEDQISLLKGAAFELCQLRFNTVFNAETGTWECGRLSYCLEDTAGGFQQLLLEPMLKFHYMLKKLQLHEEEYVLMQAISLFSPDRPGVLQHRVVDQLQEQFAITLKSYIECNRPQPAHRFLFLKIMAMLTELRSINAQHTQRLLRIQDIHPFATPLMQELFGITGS

[3] = AUC in rat at 3 mg/kg, po; conditions: in vivo
[4] = Solubility of compound at pH 6.8 incubated for 12 hrs by HPLC analysis; type: physicochemical; conditions: buffer
[5] = Metabolic stability in rat liver microsomes assessed as intrinsic clearance; type: ADME, Microsome
[6] = molecular target: T1, Cystic fibrosis transmembrane conductance regulator; assay: Potentiation of CFTR F508del mutant (unknown origin)
[7] = molecular target: T3, PXR (nuclear receptor subfamily 1 group I member 2) (Homo sapiens, UniProt O75469); assay: Activation of PXR (unknown origin) at 10 uM relative to control; conditions: read-out: Activity
T3 sequence (O75469 whole entry): T2 sequence (O75469 whole entry)

[8] = Apparent permeability across apical to basolateral side in MDCK cells; type: ADME, cell-based, Canis lupus familiaris; conditions: dog
[9] = molecular target: T1, Cystic fibrosis transmembrane conductance regulator; assay: Potentiation of CFTR F508del mutant (unknown origin) expressed in NIH3T3 cells; type: cell-based
[10] = Oral bioavailability in rat; type: ADME, organism-based; conditions: in vivo

T1 sequence (P13569 as listed by the source): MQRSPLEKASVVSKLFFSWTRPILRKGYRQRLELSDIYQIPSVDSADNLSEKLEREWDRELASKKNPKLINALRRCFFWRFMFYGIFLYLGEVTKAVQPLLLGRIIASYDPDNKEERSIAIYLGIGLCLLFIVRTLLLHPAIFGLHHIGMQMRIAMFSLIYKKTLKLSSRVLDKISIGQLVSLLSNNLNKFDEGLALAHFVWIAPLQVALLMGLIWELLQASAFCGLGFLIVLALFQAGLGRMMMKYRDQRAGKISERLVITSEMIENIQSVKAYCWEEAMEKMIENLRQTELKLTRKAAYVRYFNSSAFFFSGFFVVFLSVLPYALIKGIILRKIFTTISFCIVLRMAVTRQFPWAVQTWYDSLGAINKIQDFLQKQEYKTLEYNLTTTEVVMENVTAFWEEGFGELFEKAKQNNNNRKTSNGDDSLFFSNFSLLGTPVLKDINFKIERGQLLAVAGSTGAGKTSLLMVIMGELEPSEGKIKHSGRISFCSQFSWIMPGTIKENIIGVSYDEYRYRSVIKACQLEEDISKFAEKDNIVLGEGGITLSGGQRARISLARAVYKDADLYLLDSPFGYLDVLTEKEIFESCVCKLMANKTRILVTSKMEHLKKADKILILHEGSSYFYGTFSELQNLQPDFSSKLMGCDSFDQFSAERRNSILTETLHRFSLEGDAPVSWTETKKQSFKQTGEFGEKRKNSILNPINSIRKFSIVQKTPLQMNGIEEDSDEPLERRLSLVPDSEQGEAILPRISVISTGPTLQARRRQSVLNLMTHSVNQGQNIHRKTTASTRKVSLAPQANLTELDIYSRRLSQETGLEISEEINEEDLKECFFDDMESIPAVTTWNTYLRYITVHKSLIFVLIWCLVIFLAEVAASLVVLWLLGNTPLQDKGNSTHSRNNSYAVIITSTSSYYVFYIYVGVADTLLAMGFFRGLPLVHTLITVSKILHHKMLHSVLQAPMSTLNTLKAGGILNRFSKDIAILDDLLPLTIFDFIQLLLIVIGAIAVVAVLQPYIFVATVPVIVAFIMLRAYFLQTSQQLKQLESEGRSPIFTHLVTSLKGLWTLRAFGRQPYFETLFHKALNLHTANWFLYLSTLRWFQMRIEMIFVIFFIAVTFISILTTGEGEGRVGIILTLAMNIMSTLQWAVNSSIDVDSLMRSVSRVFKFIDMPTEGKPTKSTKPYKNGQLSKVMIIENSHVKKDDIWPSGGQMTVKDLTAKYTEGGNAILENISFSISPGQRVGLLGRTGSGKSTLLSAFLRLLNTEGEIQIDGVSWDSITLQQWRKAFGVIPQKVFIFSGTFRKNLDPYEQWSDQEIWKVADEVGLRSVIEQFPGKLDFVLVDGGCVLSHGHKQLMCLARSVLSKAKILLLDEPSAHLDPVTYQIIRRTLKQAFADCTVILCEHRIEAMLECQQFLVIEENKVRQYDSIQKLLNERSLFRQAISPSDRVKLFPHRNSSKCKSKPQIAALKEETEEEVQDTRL

An EC50 [1] of 127 nM was found for `CC1(C)Cc2c(sc(NC(=O)[C@@H](O)C(C)(C)C)c2C(N)=O)C(C)(C)O1` in this work.
An EC50 [1] of 240 nM was found for `C[C@@H]1CN(c2nc(-n3ccc(OCC(O)C4(C(F)(F)F)CC4)n3)ccc2C(=O)NS(=O)(=O)c2ccccc2)C(C)(C)C1` (stereo partly specified) in this work.
An EC50 [1] of 4 nM was found for `CC(C)(CN1CCCCCc2ccccc2-c2nc(ccc2C(F)(F)F)NS(=O)(=O)c2cccc1n2)C(=O)O` in this work.
An Activity [2] of 19%, an AUC [3] of 14700 ng·h/mL and an EC50 [1] of 40 nM were found for `C[C@@H]1CN(c2nc(-n3ccc(OCC4(C(F)(F)F)CC4)n3)ccc2C(=O)NS(=O)(=O)c2ccccc2)C(C)(C)C1` in this work.
An EC50 [1] of 15 nM was found for `CC1(C)Cc2c(sc(NC(=O)c3ccccc3O)c2C(N)=O)C(C)(C)O1` in this work.
A solubility at 12 h [4] of 2 µg/mL (≈ 6.99 µM), a CLint [5] of 351 µL/min/mg and an EC50 [6] of 70 nM were found for `COC(=O)c1nc(-c2ccco2)c(C(F)(F)F)cc1N` in this work.
An activity at 10 µM [7] of 1%, a Papp A→B [8] of 8.8 ×10⁻⁶ cm/s and an EC50 [9] of 90 nM were found for `Cc1nn(C)c(C)c1S(=O)(=O)NC(=O)c1ccc(-n2ccc(OCC(C)(C)C(F)(F)F)n2)nc1N1C[C@@H](C)CC1(C)C` in this work.
An EC50 [1] of 1.1 nM was found for `Nc1cc(S(=O)(=O)c2ccc(OC(F)(F)F)cc2)cnc1-c1nnc([C@@H](O)c2ccccc2)o1` in this work.
An EC50 [1] of 4 nM was found for `Cc1ccc(C2CCCCC2)c(OC2(C(=O)NS(=O)(=O)c3cccc(N4CCC(N)(C(F)(F)F)CC4)n3)CC2)c1` in this work.
An EC50 [1] of 5.8 nM was found for `Nc1cc(S(=O)(=O)c2ccc(OC(F)(F)F)cc2)cnc1-c1nnc(C(O)C(F)(F)F)o1` (stereo unspecified) in this work.
An EC50 [1] of 80 nM was found for `CC(C)(CN1CCCCCCc2ccccc2-c2nc(ccc2C(F)(F)F)NS(=O)(=O)c2cccc1n2)C(=O)O` in this work.
A solubility at 12 h [4] of 40 µg/mL (≈ 140 µM), a CLint [5] of 205 µL/min/mg and an EC50 [6] of 1860 nM were found for `CNC(=O)c1nc(-c2ccco2)c(C(F)(F)F)cc1N` in this work.
An EC50 [1] of 30 nM was found for `COc1ccc(C)cc1[C@]1(C(=O)NS(=O)(=O)c2cccc3nc(C)ccc23)C[C@@H](c2ccccc2)CO1` in this work.
An EC50 [1] of 1.6 nM was found for `Nc1cc(S(=O)(=O)c2ccc(C(F)(F)F)cc2)cnc1-c1nnc(CO)o1` in this work.
An EC50 [1] of 5 nM was found for `CCOc1cccc([C@H]2C[C@@]2(C(=O)NS(=O)(=O)c2cccc3nc(C)ccc23)c2cc(C)ccc2OC)n1` in this work.
An EC50 [1] of 4 nM was found for `CCc1ccccc1-c1nc(NS(=O)(=O)c2cccc(N(CC)CCCC(=O)O)n2)ccc1C(F)(F)F` in this work.
An EC50 [1] of 2 nM was found for `Cc1ccc(C2CCCCCC2)c(OC2(C(=O)NS(=O)(=O)c3cccc(N)n3)CC2)c1` in this work.
A CLint [5] of 100 µL/min/mg was found for `CNC(=O)c1nc(Br)c(C(F)(F)F)cc1N` in this work.
An Activity [2] of 2%, an AUC [3] of 1200 ng·h/mL and an EC50 [1] of 60 nM were found for `C[C@@H]1CN(c2nc(-n3ccc(OCC(C)(C)C)n3)ccc2C(=O)NS(=O)(=O)c2cccnc2N)C(C)(C)C1` in this work.
An activity at 10 µM [7] of 3%, a bioavailability [10] of 66% and a Papp A→B [8] of 2.7 ×10⁻⁶ cm/s were found for `Cc1nn(C)cc1S(=O)(=O)NC(=O)c1ccc(-n2ccc(OCC3(C(F)(F)F)CCC3)n2)nc1N1C[C@@H](C)CC1(C)C` in this work. The EC50 [9] was 130 nM.
For `COc1ccc(Br)c2c1C(C(=O)NS(=O)(=O)c1cccc3ccccc13)CC2` (stereo unspecified), the EC50 [1] was < 3000 nM.
A solubility at 12 h [4] of 170 µg/mL (≈ 447 µM) and a CLint [5] of 55.8 µL/min/mg were found for `Nc1cc(C(F)(F)F)c(Br)nc1C(=O)NCCC(F)(F)F` in this work.
A solubility at 12 h [4] of 13 µg/mL (≈ 37.6 µM), a CLint [5] of 342 µL/min/mg and an EC50 [6] of 360 nM were found for `COC(=O)c1nc(I)c(C(F)(F)F)cc1N` in this work.
An activity at 10 µM [7] of 4%, a bioavailability [10] of 65% and a Papp A→B [8] of 11.7 ×10⁻⁶ cm/s were found for `Cc1nn(C)cc1S(=O)(=O)NC(=O)c1ccc(-n2ccc(OCCC3(C(F)(F)F)CC3)n2)nc1N1C[C@@H](C)CC1(C)C` in this work. It also gave an EC50 [9] of 130 nM.
An EC50 [1] of 10 nM was found for `COc1ccc(C)cc1[C@@]1(C(=O)NS(=O)(=O)c2cccc3nc(C)ccc23)C[C@H](c2ccccc2)CO1` [RISELCAFTOR] in this work.
For `COc1ccc(C2CCC2)c2c1C(C(=O)NS(=O)(=O)c1cccc3ccccc13)C2` (stereo unspecified), the EC50 [1] was < 3000 nM.
An EC50 [1] of 80 nM was found for `Cc1ccc(-c2cccc(C(F)(F)F)c2)c(OC2(C(=O)NS(=O)(=O)c3cccc(N4CCC(N)(C(F)(F)F)CC4)n3)CC2)c1` in this work.
